Where “and” joins values, the source holds several entries; their conditions need not be identical. Equal entries are not always repeated.
Tests used:
[1] = tested on: photosynthetic electron transport (PET) in spinach chloroplasts; test: Inhibition of photosynthetic electron transport (PET) in spinach chloroplasts; type: biochemical, Spinacia oleracea L.; details: photoreduction of DCPIP, pH 7.2
Experimental: Chloroplasts were prepared from spinach (Spinacia oleracea L.) according to Masarovicova and Kralova. The inhibition of photosynthetic electron transport (PET) in spinach chloroplasts was determined spectrophotometrically (Genesys 6, Thermo Scientific, USA), using an artificial electron acceptor 2,6-dichlorophenol-indophenol (DCIPP) according to Kralova et al., and the rate of photosynthetic electron transport was monitored as a photoreduction of DCPIP. The measurements were carried out in phosphate buffer (0.02 mol/L, pH 7.2) containing sucrose (0.4 mol/L), MgCl2 (0.005 mol/L) and NaCl (0.015 mol/L). The chlorophyll content was 30 mg/L in these experiments and the samples were irradiated (~100 W/m^2 with 10 cm distance) with a halogen lamp (250 W) using a 4 cm water filter to prevent warming of the samples (suspension temperature 22 °C). The studied compounds were dissolved in DMSO due to their limited water solubility. […] The inhibitory efficiency of the studied compounds was expressed by IC50 values, i.e., by molar concentration of the compounds causing 50% decrease in the oxygen evolution rate relative to the untreated control.

| SMILES | melting point | IC50 [1] |
| --- | --- | --- |
| COc1ccccc1NC(=O)c1ccc2ccccc2n1 [Compound 13a, N-(2-Methoxyphenyl)quinoline-2-carboxamide] | 111 to 112 °C |  |
| O=C(Nc1ccccc1)c1ccc2ccccc2c1 [Compound 28, N-Phenyl-2-naphthamide] |  | 20.7 µM |
| O=C(NCc1ccccc1)c1ccc2ccccc2n1 [Compound 10, N-Benzylquinoline-2-carboxamide] | 123 to 124 °C | 59.4 µM |
| Cc1ccc(NC(=O)c2ccc3ccccc3n2)cc1 [Compound 14c, N-(4-Methylphenyl)quinoline-2-carboxamide] | 107 to 108 °C |  |
| O=C(Nc1ccc(O)cc1)c1ccc2ccccc2n1 [Compound 12c, N-(4-Hydroxyphenyl)quinoline-2-carboxamide] | 230 to 231 °C |  |
| CN(C)C(=O)Nc1ccc(Cl)c(Cl)c1 [DCMU, 3-(3,4-dichlorophenyl)-1,1-dimethylurea, reference compound] |  | ~1.9 µM and 1.9 µM |
| O=C(Nc1cccc(F)c1)c1ccc2ccccc2n1 [Compound 15b, N-(3-Fluorophenyl)quinoline-2-carboxamide] | 126 to 127 °C | 86.9 µM |
| O=C(c1ccc2ccccc2c1)N1CCCCC1 [Compound 23, 1-(2-Naphthoyl)piperidine] | 97 to 98 °C |  |
| O=C(NCc1ccccc1)c1ccc2ccccc2c1 [Compound 29, N-Benzyl-2-naphthamide] | 138 to 139 °C | 7.5 µM |
| CCCCCCCCCCCCNC(=O)c1ccc2ccccc2c1 [Compound 21, N-Dodecyl-2-naphthamide] | 102 to 103 °C | 845 µM |
| O=C(c1ccc2ccccc2n1)N1CCCCC1 [Compound 4, 2-(Piperidin-1-ylcarbonyl)quinoline] | 83 to 84 °C |  |
| O=C(NC1CCCCCCC1)c1ccc2ccccc2c1 [Compound 27, N-Cyclooctyl-2-naphthamide] | 145 to 146 °C | 688 µM |
| COc1cccc(NC(=O)c2ccc3ccccc3n2)c1 [Compound 13b, N-(3-Methoxyphenyl)quinoline-2-carboxamide] | 117 to 118 °C |  |
| O=C(Nc1ccccc1F)c1ccc2ccccc2n1 [Compound 15a, N-(2-Fluorophenyl)quinoline-2-carboxamide] | 116 to 117 °C | 98.1 µM |
| O=C(NCCc1ccccc1)c1ccc2ccccc2c1 [Compound 30, N-(2-Phenylethyl)-2-naphthamide] | 133 to 134 °C |  |
| Cc1ccccc1NC(=O)c1ccc2ccccc2n1 [Compound 14a, N-(2-Methylphenyl)quinoline-2-carboxamide] | 100 to 101 °C | 143 µM |
| O=C(Nc1ccc(F)cc1)c1ccc2ccccc2n1 [Compound 15c, N-(4-Fluorophenyl)quinoline-2-carboxamide] | 115 to 116 °C | 75.3 µM |
| O=C(Nc1cccc(O)c1)c1ccc2ccccc2n1 [Compound 12b, N-(3-Hydroxyphenyl)quinoline-2-carboxamide] | 154 to 155 °C |  |
| COc1ccc(NC(=O)c2ccc3ccccc3n2)cc1 [Compound 13c, N-(4-Methoxyphenyl)quinoline-2-carboxamide] | 130 to 131 °C |  |
| O=C(NC1CCCCCC1)c1ccc2ccccc2c1 [Compound 26, N-Cycloheptyl-2-naphthamide] | 157 to 158 °C | 216 µM |
| O=C(NC1CCCC1)c1ccc2ccccc2c1 [Compound 24, N-Cyclopentyl-2-naphthamide] | 190 to 191 °C |  |
| O=C(Nc1ccccc1O)c1ccc2ccccc2n1 [Compound 12a, N-(2-Hydroxyphenyl)quinoline-2-carboxamide] | 219 to 220 °C | 16.3 µM |
| O=C(NC1CCCCC1)c1ccc2ccccc2c1 [Compound 25, N-Cyclohexyl-2-naphthamide] | 184 to 185 °C |  |
| CC(C)NC(=O)c1ccc2ccccc2c1 [Compound 20, N-Isopropyl-2-naphthamide] | 174 to 176 °C | 353 µM |

Further lines, results first:

| melting point | IC50 [1] | SMILES |
| --- | --- | --- |
| 195 °C |  | Cc1ccc(NC(=O)c2ccc3ccccc3c2)cc1 [Compound 33c, N-(4-Methylphenyl)-2-naphthamide] |
| 218 °C |  | O=C(Nc1ccc(Cl)cc1)c1ccc2ccccc2c1 [Compound 35c, N-(4-Chlorophenyl)-2-naphthamide] |
| 150 °C | 309 µM | O=C(Nc1cccc(C(F)(F)F)c1)c1ccc2ccccc2c1 [Compound 37b, N-(3-Trifluoromethylphenyl)-2-naphthamide] |
| 130 to 131 °C | 56.3 µM | O=C(Nc1ccccc1Cl)c1ccc2ccccc2n1 [Compound 16a, N-(2-Chlorophenyl)quinoline-2-carboxamide] |
| 227 to 228 °C |  | O=C(Nc1ccc([N+](=O)[O-])cc1)c1ccc2ccccc2n1 [Compound 19c, N-(4-Nitrophenyl)quinoline-2-carboxamide] |
| 122 °C |  | O=C(Nc1ccccc1F)c1ccc2ccccc2c1 [Compound 34a, N-(2-Fluorophenyl)-2-naphthamide] |
| 181 to 182 °C |  | O=C(Nc1ccccc1[N+](=O)[O-])c1ccc2ccccc2n1 [Compound 19a, N-(2-Nitrophenyl)quinoline-2-carboxamide] |
| 116 °C |  | O=C(Nc1ccccc1Cl)c1ccc2ccccc2c1 [Compound 35a, N-(2-Chlorophenyl)-2-naphthamide] |
| 231 °C |  | O=C(Nc1ccc(Br)cc1)c1ccc2ccccc2c1 [Compound 36c, N-(4-Bromophenyl)-2-naphthamide] |
| 139 to 140 °C | 409 µM | O=C(Nc1cccc(Br)c1)c1ccc2ccccc2n1 [Compound 17b, N-(3-Bromophenyl)quinoline-2-carboxamide] |
| 146 °C |  | Cc1ccccc1NC(=O)c1ccc2ccccc2c1 [Compound 33a, N-(2-Methylphenyl)-2-naphthamide] |
| 147 to 148 °C |  | O=C(Nc1ccc(C(F)(F)F)cc1)c1ccc2ccccc2n1 [Compound 18c, N-(4-Trifluoromethylphenyl)quinoline-2-carboxamide] |
| 134 to 135 °C | 148 µM | O=C(Nc1ccc(Cl)cc1)c1ccc2ccccc2n1 [Compound 16c, N-(4-Chlorophenyl)quinoline-2-carboxamide] |
| 127 to 128 °C | 91.9 µM | O=C(Nc1cccc(Cl)c1)c1ccc2ccccc2n1 [Compound 16b, N-(3-Chlorophenyl)quinoline-2-carboxamide] |
| 194 °C |  | O=C(Nc1cccc(O)c1)c1ccc2ccccc2c1 [Compound 31b, N-(3-Hydroxyphenyl)-2-naphthamide] |
| 191 °C |  | O=C(Nc1ccc(F)cc1)c1ccc2ccccc2c1 [Compound 34c, N-(4-Fluorophenyl)-2-naphthamide] |
| 134 to 135 °C | 92.2 µM | O=C(Nc1ccccc1Br)c1ccc2ccccc2n1 [Compound 17a, N-(2-Bromophenyl)quinoline-2-carboxamide] |
| 167 °C |  | O=C(Nc1cccc(F)c1)c1ccc2ccccc2c1 [Compound 34b, N-(3-Fluorophenyl)-2-naphthamide] |
| 123 °C |  | O=C(Nc1ccccc1Br)c1ccc2ccccc2c1 [Compound 36a, N-(2-Bromophenyl)-2-naphthamide] |
| 121 to 122 °C | 330 µM | O=C(Nc1cccc(C(F)(F)F)c1)c1ccc2ccccc2n1 [Compound 18b, N-(3-Trifluoromethylphenyl)quinoline-2-carboxamide] |
| 160 °C |  | Cc1cccc(NC(=O)c2ccc3ccccc3c2)c1 [Compound 33b, N-(3-Methylphenyl)-2-naphthamide] |
| 200 °C | 260 µM | O=C(Nc1ccc([N+](=O)[O-])cc1)c1ccc2ccccc2c1 [Compound 38c, N-(4-Nitrophenyl)-2-naphthamide] |
| 120 to 121 °C | 109 µM | O=C(Nc1ccccc1C(F)(F)F)c1ccc2ccccc2n1 [Compound 18a, N-(2-Trifluoromethylphenyl)quinoline-2-carboxamide] |
| 193 °C | 103 µM | O=C(Nc1cccc(Br)c1)c1ccc2ccccc2c1 [Compound 36b, N-(3-Bromophenyl)-2-naphthamide] |
| 157 to 158 °C | 308 µM | O=C(Nc1ccc(Br)cc1)c1ccc2ccccc2n1 [Compound 17c, N-(4-Bromophenyl)quinoline-2-carboxamide] |
| 180 °C | 81 µM | O=C(Nc1cccc(Cl)c1)c1ccc2ccccc2c1 [Compound 35b, N-(3-Chlorophenyl)-2-naphthamide] |
| 224 °C |  | O=C(Nc1ccc(C(F)(F)F)cc1)c1ccc2ccccc2c1 [Compound 37c, N-(4-Trifluoromethylphenyl)-2-naphthamide] |
| 142 °C | 306 µM | COc1cccc(NC(=O)c2ccc3ccccc3c2)c1 [Compound 32b, N-(3-Methoxyphenyl)-2-naphthamide] |
| 136 °C |  | O=C(Nc1ccccc1[N+](=O)[O-])c1ccc2ccccc2c1 [Compound 38a, N-(2-Nitrophenyl)-2-naphthamide] |
| 189 to 190 °C |  | O=C(Nc1cccc([N+](=O)[O-])c1)c1ccc2ccccc2n1 [Compound 19b, N-(3-Nitrophenyl)quinoline-2-carboxamide] |

— publication PMC6268315, “Investigating the Spectrum of Biological Activity of Substituted Quinoline-2-Carboxamides and Their Isosteres ^†” (Molecules, 2012)
